Measured values: patent US20140357655A1, “SPIROINDOLINE DERIVATIVES AS GONADOTROPIN- RELEASING HORMONE RECEPTOR ANTAGONISTS” (Bayer Intellectual Property GmbH, priority 2012, published 2014)

Target: T1, human GnRH receptor (Homo sapiens, UniProt P30968)
T1 sequence (P30968 1-328): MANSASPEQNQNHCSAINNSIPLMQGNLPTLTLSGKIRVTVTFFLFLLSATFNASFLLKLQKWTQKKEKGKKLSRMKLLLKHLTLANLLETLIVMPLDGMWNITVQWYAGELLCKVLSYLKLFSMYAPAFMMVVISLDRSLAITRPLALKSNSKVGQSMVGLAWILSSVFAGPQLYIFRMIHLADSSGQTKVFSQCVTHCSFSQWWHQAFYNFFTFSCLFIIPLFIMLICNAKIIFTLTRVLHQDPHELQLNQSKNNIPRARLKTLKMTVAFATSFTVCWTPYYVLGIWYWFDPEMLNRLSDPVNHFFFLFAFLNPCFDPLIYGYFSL
Assay: IP-One HTRF assay with buserelin (at EC80) stimulation
Format: cell-based
Conditions: CHO cells stably expressing human GnRH receptor, read-out: Potency in IP-One HTRF assay, given as IC50
In short: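 CHO cells stably expressing human GnRH receptor, preincubated 1 h at 37° C with IP1-d2, were exposed to compound and buserelin at EC80 for 1 h at 37° C. After lysis with Tb-anti-IP1 antibody (1 h, 22° C), 665/620 nm HTRF ratio read; 10 concentrations, 20 μM–1 nM, duplicates, 4-parameter IC50.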

In the case of `C=CCC1N(S(=O)(=O)c2ccc(F)cc2)c2ccc(C(=O)Nc3cccc(C(=O)OC)c3)cc2C12CCS(=O)(=O)CC2` (stereo not shown) [Example 58, methyl 3-[({1-[(4-fluorophenyl)sulfonyl]-1′,1′-dioxido-2-(prop-2-en-1-yl)-1,2,2′,3′,5′,6′-hexahydrospiro[indole-3,4′-thiopyran]-5-yl}carbonyl)amino]benzoate], the IC50 is reported as 41 nM.

For `O=C(NCc1ccccc1C(F)F)c1ccc2c(c1)C1(CCS(=O)(=O)CC1)C(C1CC1)N2S(=O)(=O)c1ccc(F)cc1` (stereo not shown) [Example 68, 2-cyclopropyl-N-[2-(difluoromethyl)benzyl]-1-[(4-fluorophenyl)sulfonyl]-1,2,2′,3′,5′,6′-hexahydrospiro[indole-3,4′-thiopyran]-5-carboxamide 1′,1′-dioxide], the IC50 was 4.5 nM.

Compound `O=C(Nc1ccc2c(c1)C1(CCS(=O)(=O)CC1)C(C1CC1)N2S(=O)(=O)c1ccc(F)cc1)C1CC1` (stereo not shown) [Example 97, N-{2-Cyclopropyl-1-[(4-fluorophenyl)sulfonyl]-1′,1′-dioxido-1,2,2′,3′,5′,6′-hexahydrospiro[indole-3,4′-thiopyran]-5-yl}cyclopropanecarboxamide] has an IC50 of 2230 nM.

`CC1N(S(=O)(=O)c2ccc(F)cc2)c2ccc(C(=O)NCc3ccccc3Cl)cc2C12CCOCC2` (stereo not shown) [Example 2, N-(2-chlorobenzyl)-1-[(4-fluorophenyl)sulfonyl]-2-methyl-1,2,2′,3′,5′,6′-hexahydrospiro[indole-3,4′-pyran]-5-carboxamide] was tested, and the IC50 was 189 nM.

`N#Cc1ccc(S(=O)(=O)N2c3ccc(C(=O)Nc4cncc(Cl)c4)cc3C3(CCS(=O)(=O)CC3)C2C2CC2)cc1` (single isomer, unassigned) [Example 71.2, N-(5-chloropyridin-3-yl)-1-[(4-cyanophenyl)sulfonyl]-2-cyclopropyl-1,2,2′,3′,5′,6′-hexahydrospiro[indole-3,4′-thiopyran]-5-carboxamide 1′,1′-dioxide] was tested, and the IC50 was 1630 nM.

`COc1cccc(S(=O)(=O)N2c3ccc(C(=O)NCc4ccccc4C(F)(F)F)cc3C3(CCS(=O)(=O)CC3)C2C2CC2)c1` (single isomer, unassigned) [Example 40.1, 2-cyclopropyl-1-[(3-methoxyphenyl)sulfonyl]-N-[2-(trifluoromethyl)benzyl]-1,2,2′,3′,5′,6′-hexahydrospiro[indole-3,4′-thiopyran]-5-carboxamide 1′,1′-dioxide] gave an IC50 of 19 nM.

Work on `O=C(Nc1cncc(Cl)c1)c1ccc2c(c1)C1(CCS(=O)(=O)CC1)C(C1CC1)N2S(=O)(=O)c1cccc(OC(F)F)c1` (stereo not shown) [Example 88, N-(5-chloropyridin-3-yl)-2-cyclopropyl-1-{[3-(difluoromethoxy)phenyl]sulfonyl}-1,2,2′,3′,5′,6′-hexahydrospiro[indole-3,4′-thiopyran]-5-carboxamide 1′,1′-dioxide] yielded an IC50 of 262 nM.

With `CC1N(S(=O)(=O)c2ccc(F)cc2)c2ccc(C(=O)NCc3ncccc3C(F)(F)F)cc2C12CCOCC2` (stereo not shown) [Example 3, 1-[(4-fluorophenyl)sulfonyl]-2-methyl-N-{[3-(trifluoromethyl)pyridin-2-yl]methyl}-1,2,2′,3′,5′,6′-hexahydrospiro[indole-3,4′-pyran]-5-carboxamide] the IC50 was 584 nM.

Compound `COc1cccc(S(=O)(=O)N2c3ccc(C(=O)Nc4cccc(S(=O)(=O)N=C(N(C)C)N(C)C)c4)cc3C3(CCS(=O)(=O)CC3)C2C2CC2)c1` (stereo not shown) [Example 62, N-(3-{[bis(dimethylamino)methylidene]sulfamoyl}phenyl)-2-cyclopropyl-1-[(3-methoxyphenyl)sulfonyl]-1,2,2′,3′,5′,6′-hexahydrospiro[indole-3,4′-thiopyran]-5-carboxamide 1′,1′-dioxide] has an IC50 of 9.8 nM.

`COc1cccc(S(=O)(=O)N2c3ccc(C(=O)NCc4ncccc4C)cc3C3(CCS(=O)(=O)CC3)C2C2CC2)c1` (single isomer, unassigned) [Example 45.2, 2-cyclopropyl-1-[(3-methoxyphenyl)sulfonyl]-N-[(3-methylpyridin-2-yl)methyl]-1,2,2′,3′,5′,6′-hexahydrospiro[indole-3,4′-thiopyran]-5-carboxamide 1′,1′-dioxide] was tested, and the IC50 was 4460 nM.

With `O=C(NCc1ccccc1O)c1ccc2c(c1)C1(CCS(=O)(=O)CC1)C(C1CC1)N2S(=O)(=O)c1ccc(F)cc1` (stereo not shown) [Example 69, 2-cyclopropyl-1-[(4-fluorophenyl)sulfonyl]-N-(2-hydroxybenzyl)-1,2,2′,3′,5′,6′-hexahydrospiro[indole-3,4′-thiopyran]-5-carboxamide 1′,1′-dioxide] the IC50 was 320 nM.

`COc1cccc(S(=O)(=O)N2c3ccc(C(=O)Nc4cccc(S(=O)(=O)N(C)C)c4)cc3C3(CCS(=O)(=O)CC3)C2C2CC2)c1` (stereo not shown) [Example 43, 2-cyclopropyl-N-[3-(N,N-dimethylsulfamoyl)phenyl]-1-[(3-methoxyphenyl)sulfonyl]-1,2,2′,3′,5′,6′-hexahydrospiro[indole-3,4′-thiopyran]-5-carboxamide 1′,1′-dioxide] gave an IC50 of 56 nM.

With `O=C(NCc1ncccc1C(F)(F)F)c1ccc2c(c1)C1(CCS(=O)(=O)CC1)C(C1CC1)N2S(=O)(=O)c1ccc(F)cc1` (stereo not shown) [Example 15, 2-cyclopropyl-1-[(4-fluorophenyl)sulfonyl]-N-{[3-(trifluoromethyl)pyridin-2-yl]methyl}-1,2,2′,3′,5′,6′-hexahydrospiro[indole-3,4′-thiopyran]-5-carboxamide 1′,1′-dioxide] the IC50 was 103 nM.

`O=C(NCC1CCCCC1)c1ccc2c(c1)C1(CCS(=O)(=O)CC1)C(C1CC1)N2S(=O)(=O)c1ccc(F)cc1` (single isomer, unassigned) [Example 36.2, N-(cyclohexylmethyl)-2-cyclopropyl-1-[(4-fluorophenyl)sulfonyl]-1,2,2′,3′,5′,6′-hexahydrospiro[indole-3,4′-thiopyran]-5-carboxamide 1′,1′-dioxide] showed an IC50 of 3890 nM.

Compound `C=CC1N(S(=O)(=O)c2cccc(C(=O)OC)c2)c2ccc(C(=O)NCc3ccccc3Cl)cc2C12CCS(=O)(=O)CC2` (stereo not shown) [Example 55, methyl 3-({5-[N-(2-chlorobenzyl)carbamoyl]-1′,1′-dioxido-2-vinyl-1,2,2′,3′,5′,6′-hexahydrospiro[indole-3,4′-thiopyran]-1-yl}sulfonyl)benzoate] has an IC50 of 622 nM.

`O=C(NCc1ncccc1C(F)(F)F)c1ccc2c(c1)C1(CCS(=O)(=O)CC1)C(C1CC1)N2S(=O)(=O)c1ccc(F)cc1` (single isomer, unassigned) [Example 15.1, 2-cyclopropyl-1-[(4-fluorophenyl)sulfonyl]-N-{[3-(trifluoromethyl)pyridin-2-yl]methyl}-1,2,2′,3′,5′,6′-hexahydrospiro[indole-3,4′-thiopyran]-5-carboxamide 1′,1′-dioxide] was tested, and the IC50 was greater than 20000 nM.
